Measured values from patent US11357840B2, “Methods and compositions for reducing growth, migration and invasiveness of brain cancer stem cells and improving survival of patients with brain tumors” (HYPERSTEM SA, priority 2014, dated 2022).
No end group written: not given here. *: point of attachment. Boc = CC(C)(C)OC(=O)*; For = O=C*

Tests used:
[1] = tested on: growth factor independent (GFI) hGBM TPCs; assay: Matrigel invasion assay, GFI TPCs; format: cell-based, human
Text: Invasion Assays—Matrigel Invasion Assays
An Invasion Assay is an in vitro system to study invasion capability of malignant and normal cells. Specific applications include assessment of the metastatic potential of tumor cells, inhibition of metastasis by extracellular matrix components or antineoplastic drugs, altered expression of cell surface proteins, or matrix metalloproteinases in metastatic cells; and invasion of normal cells such as embryonic stem cells, cytotrophoblasts, endothelial cells, and fibroblasts.
According to one embodiment, the following Matrigel invasion assay protocol is one example of an invasion assay. A coating buffer is prepared and a Matrigel Matrix aliquot is thawed at 4° C. Then, a coating solution is prepared by mixing the Matrigel Matrix with the coating buffer. A number of permeable supports are transferred into the wells of a 24-well plate and 100 ul of the diluted Matrigel is put into each well of the 24-well plate. The plate is then incubated with the coated permeable support at 37° C. for 2 h for gelling. Cells are cultured and prepared for the invasion assay, for example, growth factor dependent hGBM tumor-propagating cells with stem-like characteristic (GFD TPCs) are pretreated with saturating concentrations of recombinant Wnt5a protein (GFD+R5); lentiviral-mediated over-expression GFD cells (GFD+LV5); growth factor independent (GFI) TPCs are treated with saturating concentrations of a Wnt5a-blocking antibody (AbW5) or of a recombinant Wnt3a protein (R3) or of a recombinant secreted frizzled-related protein 1 (SFRP1), or GFI TPCs exposed to Wnt5a-derived peptides termed Box5 (SEQ ID NO: 1), Peptide A (SEQ ID NO: 2) and Peptide B (SEQ ID NO: 3) Cell suspensions are prepared in culture medium containing 5×10^4 cells/mL for the 24 well invasion chambers. An aliquot of 0.5 mL of cell suspension (2.5×10^4 cells) is then added to each 24 well invasion chamber. A chemoattractant is added to the wells of the plate (such as fibronectin as an adhesive substrate). The Cell invasion chambers are then incubated overnight in a humidified tissue culture incubator at 37° C., 5% CO2 atmosphere. The noninvaded cells on the top of the Matrigel coated permeable support are scraped off with a cotton swab. Then the permeable supports from 24-well plates are removed and stained with a cell staining solution and the invaded cells are counted under a light microscope.

[2] = tested on: 4T1 breast cancer cells; conditions: in vitro; Safholm et al. 2008; cited from earlier work
[3] = tested on: hGBM TPC-derived tumors (GFI / GFD TPCs); assay: Orthotopic implantation of luciferase-tagged TPCs into SCID mice; format: in vivo, mouse (SCID); conditions: for tumor growth (luc-TPC signal, time course): GFI cells treated in culture prior to transplantation (pre-treatment), SCID mice, FIG. 18c; for tumor growth (luc-TPC signals, time course): co-injection (co-treatment) with either GFD or GFI TPCs, FIGS. 18e and 18f; for tumor spread through the brain parenchyma (luciferase immunolabeling): luc-GFI pre-treated vs untreated GFI TPCs, FIG. 18d
Method: Evaluation of Tumorigenic Ability and Invasiveness In Vivo by Orthotopic Implantation
Tumorigenicity was determined by injecting tumor cells into immunodeprived adult severe combined immunodeficiency (SCID) mice. (Galli et al., Cancer Res. 2004, 65:7011-7021). Tumor cells, for example, GFI TPCs, GFD TPCs, GFI TPCs pretreated with Box5 (SEQ ID NO: 1), GFI TPCs pretreated with PeptideA (SEQ ID NO: 2) were injected into SCID mice orthotopically to evaluate the tumorigenic ability and invasiveness in vivo. Also, GFD or GFI TPCs and Wnt5a-blocking protein (AbWt), alone or in combination with BMP4 (B4), Box5 (SEQ ID NO: 1) and PeptideA (SEQ ID NO: 2) were co-injected into the SCID mice.
Mice were sacrificed at different times. Serial histological reconstruction of mouse brain sections were immunolabeled for luciferase for evaluation.
Results from in vivo experiments were all subjected to statistical analysis. Survival curves were estimated using the Kaplan-Meier method.

[4] = tested on: GFI or GFD TPCs; assay: Growth kinetics (expansion) of TPCs; format: cell-based, human; conditions: FIG. 16g
[5] = tested on: melanoma cells; conditions: Jenei et al. 2009; cited from earlier work
[6] = tested on: growth factor dependent hGBM TPCs (GFD TPCs); assay: Matrigel invasion assay, GFD TPCs; format: cell-based, human; conditions: GFD cells treated with saturating concentrations (GFD+R5); FIG. 16a
Method: According to one embodiment, the following Matrigel invasion assay protocol is one example of an invasion assay. A coating buffer is prepared and a Matrigel Matrix aliquot is thawed at 4° C. Then, a coating solution is prepared by mixing the Matrigel Matrix with the coating buffer. A number of permeable supports are transferred into the wells of a 24-well plate and 100 ul of the diluted Matrigel is put into each well of the 24-well plate. The plate is then incubated with the coated permeable support at 37° C. for 2 h for gelling. […] Then the permeable supports from 24-well plates are removed and stained with a cell staining solution and the invaded cells are counted under a light microscope. […]

[7] = GFI TPCs exposed to Wnt5a-derived peptides, FIGS. 16c and 16d
[8] = saturating concentrations, FIG. 16b

Leu-Glu-Gly-Asp-Met (LEGDM) [Peptide B, pentapeptide LEGDM, peptide derivative of Box5]
invasiveness of GFI TPCs [1, 7]: decreased the invasiveness of GFI TPCs in a dose-dependent fashion

For-MDGCEL [Foxy-5, reference compound]
apoptosis or proliferation of 4T1 breast cancer cells [2]: without affecting
migration and invasion of 4T1 breast cancer cells [2]: impaired migration and invasion

LECGDM [Peptide A, hexapeptide LECGDM, peptide derivative of Box5]
tumor growth (luc-TPC signal, time course) [3]: tumor growth is decreased
tumor growth (luc-TPC signals, time course) [3]: inhibited
tumor spread through the brain parenchyma (luciferase immunolabeling) [3]: spread through the brain parenchyma less
invasiveness of GFI TPCs [1, 7]: decreased the invasiveness of GFI TPCs in a dose-dependent fashion
ability of GFI or GFD TPCs to expand (slope of the growth curves) [4]: negligible effects

t-butoxycarbonyl-Met-Asp-Gly-Cys-Glu-Leu (Boc-MDGCEL) [Box5, Wnt5a-derived hexapeptide MDGCEL, antagonist of Wnt5a, modified from Foxy-5, reference compound]
tumor growth (luc-TPC signal, time course) [3]: tumor growth is decreased
tumor growth (luc-TPC signals, time course) [3]: inhibited
tumor spread through the brain parenchyma (luciferase immunolabeling) [3]: spread through the brain parenchyma less
antagonism of Wnt5a-mediated migration and invasion of melanoma cells [5]: potent, selective antagonist
invasiveness of GFI TPCs [1, 7]: decreased the invasiveness of GFI TPCs in a dose-dependent fashion
ability of GFI or GFD TPCs to expand (slope of the growth curves) [4]: negligible effects

B1: BMP4: bone morphogenetic protein 4, positive control (protein, UniProt P12644 293-408, looked up)
Bone morphogenetic protein 4: SPKHHSQRARKKNKNCRRHSLYVDFSDVGWNDWIVAPPGYQAFYCHGDCPFPLADHLNSTNHAIVQTLVNSVNSSIPKACCVPTELSAISMLYLDEYDKVVLKNYQEMVVEGCGCR
ability of GFI or GFD TPCs to expand (slope of the growth curves) [4]: significantly triggered negative deviations from the growth kinetics

B2: recombinant Wnt3a protein: recombinant Wnt3a protein (R&D Systems) (protein, UniProt P56704 19-352, looked up)
Protein Wnt-3a: SYPIWWSLAVGPQYSSLGSQPILCASIPGLVPKQLRFCRNYVEIMPSVAEGIKIGIQECQHQFRGRRWNCTTVHDSLAIFGPVLDKATRESAFVHAIASAGVAFAVTRSCAEGTAAICGCSSRHQGSPGKGWKWGGCSEDIEFGGMVSREFADARENRPDARSAMNRHNNEAGRQAIASHMHLKCKCHGLSGSCEVKTCWWSQPDFRAIGDFLKDKYDSASEMVVEKHRESRGWVETLRPRYTYFKVPTERDLVYYEASPNFCEPNPETGSFGTRDRTCNVSSHGIDGCDLLCCGRGHNARAERRREKCRCVFHWCCYVSCQECTRVYDVHTCK
invasiveness of GFI TPCs [1, 8]: decreased the invasiveness

B3: SFRP1: recombinant secreted frizzled-related protein 1, an endogenous Wnt antagonist (protein, UniProt Q8N474 32-314, looked up)
Secreted frizzled-related …: SEYDYVSFQSDIGPYQSGRFYTKPPQCVDIPADLRLCHNVGYKKMVLPNLLEHETMAEVKQQASSWVPLLNKNCHAGTQVFLCSLFAPVCLDRPIYPCRWLCEAVRDSCEPVMQFFGFYWPEMLKCDKFPEGDVCIAMTPPNATEASKPQGTTVCPPCDNELKSEAIIEHLCASEFALRMKIKEVKKENGDKKIVPKKKKPLKLGPIKKKDLKKLVLYLKNGADCPCHQLDNLSHHFLIMGRKVKSQYLLTAIHKWDKKNKEFKNFMKKMKNHECPTFQSVFK
invasiveness of GFI TPCs [1, 8]: decreased the invasiveness

B4: recombinant Wnt5a protein: recombinant Wnt5a protein (protein)
chain: IIGAQPLCSQLAGLSQGQKKLCHLYQDHMQYIGEGAKTGIKECQYQFRHRRWNCSTVDNTSVFGRVMQIGSRETAFTYAVSAAGVVNAMSRACREGELSTCGCSRAARPKDLPRDWLWGGCGDNIDYGYRFAKEFVDARERERIHAKGSYESARILMNLHNNEAGRRTVYNLADVACKCHGVSGSCSLKTCWLQLADFRKVGDALKEKYDSAAAMRLNSRGKLVQVNSRFNSPTTQDLVYIDPSPDYCVRNESTGSLGTQGRLCNKTSEGMDGCELMCCGRGYDQFKTVQTERCHCKFHWCCYVKCKKCTEIVDQFVCK
apoptosis or proliferation of 4T1 breast cancer cells [2]: without affecting
migration and invasion of 4T1 breast cancer cells [2]: impaired migration and invasion
cell migration of GFD cells [6]: increase in cell migration
